Data reported in US20250345426A1, “METHODS FOR MAKING AND USING THERAPEUTIC CELLS” (THE REGENTS OF THE UNIVERSITY OF CALIFORNIA, priority 2022, published 2025).

Tested on: rituximab CAR-T cells
Assay: Antigen-independent CAR-T cell metabolic activity, rituximab CAR-T cells (data not shown)
Format: cell-based, human
From the text: Cell line generation and maintenance. HEK 293T and Raji cells were obtained from ATCC. Leu16 and rituximab scFv-expressing HEK293T cell lines were generated by retroviral transduction of HEK293T cells to express each scFv fused with EGFP via a 2A peptide, and EGFP+ cells were sorted by fluorescence-activated cell sorting (FACS) on a FACSAria (II) cell sorter (BD Bioscience) at the UCLA Flow Cytometry Core Facility. CD20+K562 cells were generated by transduction of K562 cells with a retroviral construct encoding full-length CD20. K562 cells with varying CD20 expression levels were generated by FACS sorting of CD20+K562 into bins of different antigen densities. CHLA-255-Luc-EGFP cells were generated by retroviral transduction of CHLA-255-Luc to express EGFP, and EGFP+ cells were enriched by FACS. HEK 293T cells were cultured in DMEM (HyClone) supplemented with 10% heat-inactivated FBS (HI-FBS; ThermoFisher). CHLA-255-Luc-EGFP cells were cultured in IMDM (ThermoFisher) with 10% HI-FBS. Primary human T cells, Raji, and K562 cells were cultured in RPMI-1640 (Lonza) with 10% HI-FBS. For CAR-T cells used in metabolomics studies, T cells were cultured in RPMI-1640 containing 2 g/L of 1,2-13C-glucose with 10% heat-inactivated dialyzed FBS (HI-dFBS).

For `C=C(C)[C@@H]1CC[C@]2(CO)CC[C@]3(C)[C@H](CC[C@@H]4[C@@]5(C)CC[C@H](O)C(C)(C)[C@@H]5CC[C@]43C)[C@@H]12` [betulin, Betulin], the “antigen-independent CAR-T cell metabolic activity” value was “increases”.
